Data as given in patent US8030360B2, “Anti-wrinkle agent” (Kemphys Ltd., priority 2004, dated 2011).

What was measured:
fibroblast cells = experiment: Acceleration of EGF-dependent growth of fibroblast cells; format: cell-based; conditions: low serum level
Experimental: The growth of fibroblast cells, being suspended under a low serum level, is dependent on growth factors, and the growth will start by the addition of EGF. The acceleration effects of RA and Am80 on the EGF-dependent growth were evaluated. RA gave the maximum effect (40% promotion) at 10^−6 M, and Am80 gave the maximum effect (30% promotion) at 10^−8 M. The acceleration effect of Am80 (10%) was also observed at 10^−10 Ml.

skin grooves = experiment: Planarization action on skin surface formation (skin groove), silicon resin replicas and image analysis; format: in vivo, hairless mice; conditions: 0.01% in ethanol
Experimental: Changes which appear on skin grooves after applications of RA and Am80 (each at a concentration of 0.01% in ethanol) were studied by using hairless mice (Skh-h4l, 16 weeks old, female, 5 mice per group). The applications were conducted once a day, 5 days a week, and for 30 days. As a control, only ethanol was applied. On the next day of the day of last application, replicas of skin surfaces were created by using a silicon resin, and various parameters that represent features of the shape of the skin surface were determined by using an apparatus for image analysis. […] Further, the decrease in KSD correlated to epidermal thickening.

guinea pig skin [1] = experiment: Histological findings of guinea pig skin at the end of the application period; format: in vivo
Experimental: (§1) Histological tests were conducted to study the irritancy of a retinoid on guinea pig skin and correlation between an irritancy threshold and a retinoid action threshold. Each of male guinea pigs of approximately in a weight of 600 g was applied once every day with 1, 5, 10, 50, or 100 ppm of retinoic acid (RA) or Am80 (4-[(5,6,7,8-tetrahydro-5,5,8,8-tetramethyl-2-naphthalenyl)carbamoyl]benzoic acid) as an ethanol solution on the dorsal skin (5 days a week). As a control, only the solvent (ethanol) was applied. The skin responses were evaluated according to the following 5-step criteria, and average values were calculated for each concentration of the drugs by using results obtained from three of the guinea pigs. • 0: No skin response was observed. • 1: Slight erythema was observed. • 2: Obvious erythema was observed. • 3: Strong erythema or slight edema/crust was observed. • 4: Obvious edema/crust, or more severe changes was observed.
(§2) Further, concentration dependencies of cumulative skin irritancy of RA and Am80 for the same application period were compared.

[2] = system: Normal human keratinocyte; experiment: Human keratinocyte growth (amount of DNA as index); format: cell-based; conditions: amount of DNA as index of HK growth
Experimental: (§3) Normal human keratinocyte obtained from human chest skin (HK, Kurabo) was cultured, and the cells were added with RA or Am80 (0.01% in dimethyl sulfoxide) on the second day. The cells on the second to 13th day after the addition of the agents were used as samples. By using the amount of DNA as an index of HK growth, and by using compositional ratio (K1/K16) of differentiated keratin (k1; 68 kD) and proliferating keratin (K16; 48 kD) in one-dimension SDS-PAGE as an index of differentiation, differentiation suppression rate was determined as a value wherein the ratio of the indexes of each sample and control applied only with a solvent was subtracted from 1. […] IC50 was 10^−6 to 10^−7 M for RA, and 10^−9 M for Am80.

horny layer = experiment: Horny layer turnover test (dansylchloride fluorescence); format: in vivo, guinea pig; conditions: 50 ppm, 10 μl/1 cm diameter, once a day (FIG. 3)
Experimental: Actions on turnover of horny layer were evaluated by using guinea pigs. Hartley albino male guinea pigs of approximately 750 g in weight, whose hair was removed using depilatory wax three days prior to the experiment, were applied occlusively with 5% Vaseline ointment of dansylchloride for 24 hours using a patch test Finn Chamber, and then the skin of the guinea pigs were wiped to remove the ointment. A portable fluorometer was used for irradiation with ultraviolet rays having maximum at around 338 nm, and the fluorescent intensity of the dansylchloride was measured. Simultaneously, fluorescent intensity of an area where dansylchloride was not applied (blank value) was measured in the same manner. After the measurement of the fluorescent intensities, 10 μl/1 cm diameter of RA and Am80 at 50 ppm concentration were applied once a day. During the measurement, skin irritancy was also determined according to the criteria indicated in Example 1. […] Cumulative skin irritancy was simultaneously evaluated according to the criteria in Example 1, and the results were obtained as shown in FIG. 4.

[3] = system: Normal human keratinocyte; experiment: Human keratinocyte differentiation (K1/K16 keratin ratio, SDS-PAGE); format: cell-based
Experimental: as §3

[4] = reported in WO96/30009; cited from earlier work
guinea pig skin [5] = experiment: Cumulative skin irritancy test of a retinoid on guinea pig skin; format: in vivo
Experimental: as §1, §2

Structure (SMILES)	Emax at 0.01 µM (fibroblast cells; Fibroblast, at 10^−8 M, read-out: maximum effect on EGF-dependent growth (promotion)) [%]	acceleration effect on EGF-dependent growth (fibroblast cells; at 10^−10 Ml) [%]	epidermal thickening (skin grooves; for 30 days (FIG. 6))	planarization changes of skin surface on replicas (skin grooves; once a day, 5 days a week, for 30 days)	skin thickening and inflammatory changes compared with RA (guinea pig skin [1])	IC50 ([2]; Homo sapiens, Keratinocyte, read-out: IC50 of cell growth suppression) [nM]	action on horny cell layer turnover (horny layer)	differentiation suppression rates as compared to that by RA ([3]; Am80 versus RA) [times]	cell differentiation suppression action compared with RA ([3]; K1/K16 ratio as index of differentiation)	concentration at which cell differentiation suppression action is also observed ([3]; as low as)	effect on dermatopathy caused by rays of sunlight [4]	skin responses (guinea pig skin [5]; 10 ppm or less, during this period (FIG. 2))	skin response compared with retinoic acid (guinea pig skin [5]; RA and Am80 at the same concentration (FIG. 1))	Emax at 1 µM (fibroblast cells; Fibroblast, at 10^−6 M, read-out: maximum effect on EGF-dependent growth (promotion)) [%]	IC50 of cell growth suppression [2]	irritancy threshold (cumulative skin irritancy) (guinea pig skin [5]; same application period, FIG. 2 (9th day of application))
CC1(C)CCC(C)(C)c2cc(NC(=O)c3ccc(C(=O)O)cc3)ccc21 [Am80, 4-[(5,6,7,8-tetrahydro-5,5,8,8-tetramethyl-2-naphthalenyl)carbamoyl]benzoic acid]	30	10	obvious changes	The same action was observed	more slight skin thickening and inflammatory changes even when applied at 10 times higher concentration	1	almost no effect	1.3 to 1.7	stronger than that of RA	10^−8 to 10^−10 M	ineffective	no skin responses	much weaker skin response than retinoic acid and induces extremely slow skin response	–	–	–
CC1=C(/C=C/C(C)=C/C=C/C(C)=C/C(=O)O)C(C)(C)CCC1 [RA, retinoic acid, reference compound]	–	–	–	–	–	–	–	–	–	–	–	–	–	40	10^−6 to 10^−7 M	less than 5 ppm
